Data published in patent US12251368B2, “Continuous administration of pharmaceutical composition for treatment of neurodegenerative disorders” (InTrance Medical Systems Inc., priority 2018, dated 2025).
Values joined by “and” are separate entries in the source; they are usually repeats but may differ in a detail not shown here. Equal values may be shown once.

Columns and labels:
[1] = Storage stability / shelf life of intra-intestinal gel; type: physicochemical
[2] = cited from earlier work
[3] = in vivo; cited from earlier work
[4] = target: T1, peripheral dopamine decarboxylase (Homo sapiens, UniProt P20711); settings: KINSON prescribing information; cited from earlier work
T1 construct: host or cells: patients (peripheral tissues)
T1 sequence (P20711 1-480): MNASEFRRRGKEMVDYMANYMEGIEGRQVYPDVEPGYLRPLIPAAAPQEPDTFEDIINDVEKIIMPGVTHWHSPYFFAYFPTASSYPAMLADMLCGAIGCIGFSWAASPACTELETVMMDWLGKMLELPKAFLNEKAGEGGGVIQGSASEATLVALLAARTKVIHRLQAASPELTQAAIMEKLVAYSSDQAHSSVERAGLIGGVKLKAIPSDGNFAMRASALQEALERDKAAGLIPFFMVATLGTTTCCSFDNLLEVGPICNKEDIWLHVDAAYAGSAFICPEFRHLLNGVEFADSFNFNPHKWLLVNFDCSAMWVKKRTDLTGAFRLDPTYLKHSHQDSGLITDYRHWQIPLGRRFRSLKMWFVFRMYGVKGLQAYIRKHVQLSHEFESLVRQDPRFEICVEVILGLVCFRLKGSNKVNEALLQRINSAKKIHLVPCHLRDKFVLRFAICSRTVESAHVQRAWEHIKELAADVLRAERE

[5] = cited from earlier work; remark: listed apart in the source
[6] = intravenous administration (3 mg/kg); cited from earlier work
[7] = in the presence of COMT inhibitors; literature reports; cited from earlier work

Compound: C[C@@](Cc1ccc(O)c(O)c1)(NN)C(=O)O [Carbidopa, (−)-L-α-hydrazino-α-methyl-β-(3,4-dihydroxybenzene) propanoic acid monohydrate]
- effect of storage in a light reducing container on degradation ([1]; light reducing container, such as an aluminum bag): some positive effect
- solubility in water [2]: slightly soluble in water
- crossing of the blood-brain barrier [3]: does not cross the blood-brain barrier
- dose at which peripheral dopamine decarboxylase is saturated [4]: 70-100 mg per day

Compound: N[C@@H](Cc1ccc(O)c(O)c1)C(=O)O [Levodopa, (−)-L-α-amino-β-(3,4-dihydroxybenzene) propanoic acid]
- stability in intra-intestinal gel ([1]; prior art LCIG and gel compositions of the invention): relatively stable
- bioavailability ([5]; administered via DUODOPA gel, same as in a tablet): 81-98%
- fraction metabolized to dopamine before levodopa reaches the brain ([5]; intake of levodopa alone): more than 90%
- solubility in water [2]: slightly soluble in water
- crossing of the blood-brain barrier [3]: does cross the blood-brain barrier

Compound: Cc1ccc(C(=O)c2cc(O)c(O)c([N+](=O)[O-])c2)cc1 [Tolcapone, (3,4-Dihydroxy-5-nitrophenyl)(4-methylphenyl)methanone]
- elimination half-life [6]: 2.9 h
- Levodopa bioavailablity increase [7]: 33% and 25%

Compound: NCCc1ccc(O)c(O)c1 [dopamine, 3,4-dihydroxyphenethylamine]
- crossing of the blood-brain barrier [3]: does not cross the blood-brain barrier
